Experimental findings from patent US20220304943A1, “FLOWABLE CANNABINOID COMPOSITIONS HAVING HIGH EFFECTIVE CONCENTRATIONS” (Canopy Growth Corporation, priority 2019, published 2022) are described below.

The structures appear in SMILES notation.

A short description of this series: Saturation concentration of CBDA and CBD. It counts as physicochemical. The source says: A cannabinoid composition comprising a 2:1 mixture of cannabidiolic acid (CBDA) and cannabidiol (CBD) and only minor amounts of other products provides a non-limiting illustration of how a cannabinoid incipient can be utilized to increase the in actio concentration of a target cannabinoid without increasing the in situ concentration of the target cannabinoid above its saturation concentration. […] In other words, under at least some vape-device related conditions, CBD solutions comprising greater than about 50 wt. % CBD may suffer from reduced flowability within a vape device. As such, high effective CBD concentrations appear untenable based on conventional strategies. However, the experimental results set out herein also indicate that: (i) the saturation concentration of CBDA under similar circumstances is considerably higher than that of CBD; (ii) CBDA can be converted to CBD under the conditions associated with cannabinoid vapourization (e.g. the formation of a cannabinoid-based vapour or aerosol); and (iii) including CBDA in an in situ composition can increase the saturation concentration of CBD. Accordingly, as evidenced by the results set out in the present disclosure, CBDA can be utilized as an incipient—it can increase the in actio concentration of CBD without increasing the in situ concentration of CBD above its saturation concentration. […] In this respect, the present disclosure provides access to flowable cannabinoid compositions having high effective concentrations.
FIG. 1 illustrates this with a schematic phase diagram 100 for a cannabinoid composition in accordance with the present disclosure that comprises CBDA and CBD. […] In FIG. 1, the saturation concentration of CBDA and CBD are identified with reference numbers 102 and 104, respectively, and they delineate a “potentially flowable zone” 106 from a “non-flowable zone” 108. […] This is indicated schematically in FIG. 1 with arrow 110. […]

[1] abbreviates: ethanol solutions under standard temperature and pressure conditions, CBD derived from an isolate.

As for `C=C(C)[C@@H]1CCC(C)=C[C@H]1c1c(O)cc(CCCCC)cc1O` [CBD, cannabidiol], the saturation concentration entry is reported as “about 50 wt. %” under setting [1] and “about 50 wt. %” (under at least some vape-device related conditions).

In the case of `C=C(C)[C@@H]1CCC(C)=C[C@H]1c1c(O)cc(CCCCC)c(C(=O)O)c1O` [CBDA, cannabidiolic acid], under setting [1], the saturation concentration result is “about 70 wt. %”.
